Measured values as given in patent US20260272944A1, “PYRIDO[3,4-D]PYRIMIDINONE AND PYRIMDLLNE ARYL HYDROCARBON RECEPTOR ANTAGONISTS AND USES THEREOF” (ALLIANTHERA (SUZHOU) BIOPHARMACEUTICAL CO., LTD., priority 2023, published 2026).

molecular target: T1, Human Aryl Hydrocarbon Receptor (AhR) (Homo sapiens, UniProt P35869); assay: AhR reporter assay (Human Aryl Hydrocarbon Receptor (AhR) Reporter Assay System, INDIGO Bioscience); format: cell-based; conditions: AHR inhibition at 10 nM test compound; AhR Reporter Cells activated with 200 μM kynurenic acid, 24 hours; firefly luciferase; normalized by positive and negative controls
T1 construct: purchased INDIGO Bioscience IB06001-32; host or cells: AhR Reporter Cell (the kit's proprietary reporter cells)
T1 sequence (P35869 11-848): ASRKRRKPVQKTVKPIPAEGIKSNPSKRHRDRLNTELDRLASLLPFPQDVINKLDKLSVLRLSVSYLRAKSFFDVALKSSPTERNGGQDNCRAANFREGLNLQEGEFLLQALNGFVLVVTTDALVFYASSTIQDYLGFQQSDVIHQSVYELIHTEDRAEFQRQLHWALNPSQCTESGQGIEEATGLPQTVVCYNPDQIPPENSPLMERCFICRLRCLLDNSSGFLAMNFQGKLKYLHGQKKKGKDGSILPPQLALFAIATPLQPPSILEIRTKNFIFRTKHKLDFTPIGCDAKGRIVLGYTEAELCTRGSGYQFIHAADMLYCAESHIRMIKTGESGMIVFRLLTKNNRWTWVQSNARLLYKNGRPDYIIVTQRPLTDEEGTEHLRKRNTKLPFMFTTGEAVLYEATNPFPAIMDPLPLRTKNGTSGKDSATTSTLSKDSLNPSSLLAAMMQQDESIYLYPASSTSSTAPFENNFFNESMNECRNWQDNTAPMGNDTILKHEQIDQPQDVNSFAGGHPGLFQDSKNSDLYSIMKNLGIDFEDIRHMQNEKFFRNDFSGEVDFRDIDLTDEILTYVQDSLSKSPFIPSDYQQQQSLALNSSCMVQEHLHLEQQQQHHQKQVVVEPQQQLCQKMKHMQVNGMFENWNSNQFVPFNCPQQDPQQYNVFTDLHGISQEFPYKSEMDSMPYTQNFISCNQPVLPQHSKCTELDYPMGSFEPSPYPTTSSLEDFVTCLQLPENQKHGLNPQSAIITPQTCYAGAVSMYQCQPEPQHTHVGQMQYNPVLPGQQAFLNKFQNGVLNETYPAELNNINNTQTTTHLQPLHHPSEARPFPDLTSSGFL
Protocol: The AhR reporter assay was performed following the protocol of the Human Aryl Hydrocarbon Receptor (AhR) Reporter Assay System (INDIGO Bioscience, #IB06001-32). AhR Reporter Cell was thawed and pre-incubated in Cell Recovery Medium (CRM) for 6 hours. The media was then removed and the cells were incubated with Compound Screening Medium (CSM) supplemented with 200 μM kynurenic acid for 24 hours in the absence (negative control) or presence of 10 nM test compounds. For positive inhibition control, cells activated with 200 μM kynurenic acid were incubated in the presence of literature AHR antagonists; alternatively un-activated cells were used as positive inhibition control. Following 24 hours incubation, the media was removed and Luciferase Detection Reagent (LDR) added. The firefly luciferase activity was quantified using a plate reader. Results were normalized by positive and negative controls.
The results of AHR inhibition at 10 nM for compounds as disclosed herein is reported in the below table.

Row | SMILES | inhibition at 0.01 µM [%]
1 | C[C@@H](CO)n1cnc2c(-c3cnn(C)c3)nc(-c3ccc(C4CCOCC4)nc3)cc2c1=O [Compound 11] | 3
2 | Cc1cc(N2CCOCC2)ccc1-c1cc2c(=O)n([C@@H](C)CO)cnc2c(-c2cnn(C)c2)n1 [Compound 54] | 1
3 | C[C@@H](CO)n1cnc2c(-c3cnn(C)c3)nc(-c3ccc(N4CCCCC4)cc3)cc2c1=O [Compound 13] | 64
4 | C[C@@H](CO)NC(=O)c1cc(N2CC3CCC(C2)N3c2ccc(F)cc2)nc(-c2cnn(C)c2)n1 [Compound 74] | 13
5 | C[C@@H](CO)n1cnc2c(-c3cnn(C)c3)nc(-c3ccc(N4CCN(S(C)(=O)=O)CC4)cc3)cc2c1=O [Compound 31] | 24
6 | C[C@@H](CO)n1cnc2c(-c3cnn(C)c3)nc(N3CC4CCC(C3)N4c3ccc(F)cc3)cc2c1=O [Compound 17] | 35
7 | C[C@@H](CO)n1cnc2c(-c3cnn(C)c3)nc(-c3ccc(-c4cccc(F)c4)nc3)cc2c1=O [Compound 12] | 72
8 | C[C@@H](CO)n1cnc2c(-c3cnn(C)c3)nc(-c3ccc(-c4ccccc4F)nc3)cc2c1=O [Compound 1] | 56
9 | C[C@@H](CO)n1cnc2c(-c3cnn(C)c3)nc(-c3ccc(N4CC5CCC(C4)O5)cc3)cc2c1=O [Compound 4] | 53
10 | C[C@@H](CO)n1cnc2c(-c3cnn(C)c3)nc(-c3ccc(-c4ccc(=O)n(C)c4)cc3)cc2c1=O [Compound 44] | 44
11 | Cc1nn(C)c2cc(-c3cc4c(=O)n([C@@H](C)CO)cnc4c(-c4cnn(C)c4)n3)ccc12 [Compound 10] | 28
12 | C[C@@H](CO)n1cnc2c(-c3cnn(C)c3)nc(N3CCN(c4ccc(F)cc4)CC3)cc2c1=O [Compound 14] | 85
13 | C[C@@H](CO)n1cnc2c(-c3cnn(C)c3)nc(/C=C/c3ccccc3)cc2c1=O [Compound 2] | 51
14 | C[C@@H](CO)NC(=O)c1cc(N2CCN(c3ccc(F)cc3)CC2)nc(-c2cccc(F)c2)n1 [Compound 66] | 69

Further lines, results first:

Row | inhibition at 0.01 µM [%] | SMILES
15 | -3 | C[C@@H](CO)NC(=O)c1cc(-c2ccc(C(=O)N3CCC(N)C3)cc2)nc(-c2cnn(C)c2)n1 (stereo partly drawn) [Compound 105]
16 | 10 | Cc1cc(-c2cc(C(=O)N[C@@H](C)CO)nc(-c3cnn(C)c3)n2)ccc1N1CCOCC1 [Compound 96]
17 | 87 | C[C@@H](CO)NC(=O)c1cc(-c2ccc(-c3ccc(Cl)cc3)nc2)nc(-c2cnn(C)c2)n1 [Compound 70]
18 | 77 | C[C@@H](CO)n1cnc2c(-c3cnn(C)c3)nc(N3Cc4cccnc4C3)cc2c1=O [Compound 124]
19 | 1 | C[C@@H]1CN(c2ccc(F)cc2)CCN1c1cc(C(=O)N[C@@H](C)CO)nc(-c2cnn(C)c2)n1 [Compound 76]
20 | 7 | C[C@@H](CO)n1cnc2c(-n3cncc3C3CC3)nc(-c3cncc(F)c3)cc2c1=O [Compound 129]
21 | 21 | C[C@@H](CO)NC(=O)c1cc(N2Cc3cccc(F)c3C2)nc(-c2cnn(C)c2)n1 [Compound 88]
